Reference: patent US20260263429A1, “INHIBITORS OF CA 2+/CALMODULIN-DEPENDENT PROTEIN KINASE II (CAMKII) THAT DO NOT INHIBIT LONG-TERM POTENTIATION (LTP) INDUCTION AND THERAPEUTIC USES THEREOF” (The Regents of the University of Colorado, A Body Corporate, priority 2023, published 2026)

Key:
[1] = biological target: CaMKII F89G binding to GluN2B (Homo sapiens, UniProt Q9UQM7, F89G); assay: In vitro binding of CaMKII F89G to GluN2B; details: NM-PP1
From the text: (§1) This conclusion also predicts that the LTP stimulus-induced movement of CaMKII to excitatory synapses should be (i) impaired in the CaMKII F89G mutant; but (ii) normalized by pharmacogenetic rescue with NM-PP1. Indeed, both predictions were observed experimentally (FIGS. 4D-4E).
CaMKII binding to GluN2B in vitro. CaMKII/GluN2B binding assays were done as described. Briefly, GST-GluN2B-c-tail (GST-2BC) was immobilized on anti-GST-antibody-coated microtiter plates (Thermo Scientific), blocked for 30 min with 5% BSA, and then overlaid with […] CaMKII (subunit concentration) in PIPES-buffered saline (pH 7.2) containing: 2 mM Ca^2+, 1 μM CaM, 1 mM Mg^2+, 0.1% BSA, 0.1% Tween-20 for 20 min at room temperature. Addition of 1 mM ADP, 1 mM ATP, 10 μM AS283 (or AS105) or […] NM-PP1 was added accordingly (see figure legends). After extensive washes in buffer containing 1 mM EGTA, GST-2BC and bound CaMKII was eluted for 10 min in SDS-loading buffer at 95° C. Bound CaMKII was measured via immunoblot.

[2] = tested on: synaptic localization of CaMKII F89G / K42M; assay: Synaptic localization of GFP-CaMKII F89G or K42M mutants in rat hippocampal cultures, basal and cLTP; type: cell-based; details: 10 μM NM-PP1, basal and cLTP
Method: as §1
Chemical LTP stimulation. Chemical LTP (CL TP) was induced with 100 μM glutamate and 10 μM glycine for 45 seconds. Treatments were followed by washout in 5 volumes of fresh ACSF. For biochemistry experiments, neurons were treated with 1 μM TTX to silence neurons prior to treatment with cLTP.
(§2) Image analysis of hippocampal neurons. […] 2D maximum intensity projection images were then generated and analyzed using a custom-build program in ImageJ. The program utilizes combinatorial thresholding to mask regions of the cell that contain high intensity PSD-95 puncta (the post-synaptic side of excitatory synapses in dendritic spines) and regions of the dendritic shaft that contain no fluorescence intensity of PSD-95. As a measure of synaptic enrichment, the ratio of mean CaMKII fluorescence intensity of the PSD-95 mask to the mean CaMKII fluorescence intensity in the dendritic shaft mask is measured. Spine growth was assessed by measuring the changes in mCherry cell fill fluorescence intensity within dendritic spine ROIs (F/F0).

[3] = tested on: paCaMKII F89G movement to synapses and spine growth; assay: Photoactivation of paCaMKII F89G in hippocampal neurons (structural LTP); type: cell-based; details: NM-PP1 10 μM
From the text: (§3) In this Example, two sets of pharmacogenetic tools were used in combination with the photoactivable paCaMKII to test whether structural CaMKII functions are not only the necessary but also the sufficient CaMKII functions in LTP. Specifically, in one exemplary method, hippocampal neurons were examined for sLTP (e.g., the LTP-associated growth of dendritic spines) in response to direct photoactivation of paCaMKII without any other stimulation that could trigger additional signaling pathways. […] In both cases, suppressing enzymatic CaMKII activity while allowing or enhancing GluN2B binding enabled induction of structural LTP.
(§4) paCaMKII stimulation in hippocampal neurons. […] Neurons were then imaged 15 minutes after stimulation and assessed for CaMKII synaptic enrichment and dendritic spine growth.
as §2, with “As a measure of synaptic enrichment, the ratio of mean CaMKII fluorescence intensity of the PSD-95 mask to the mean CaMKII fluorescence intensity in the dendritic shaft mask is measured.” left out

[4] = tested on: paCaMKII T286A movement to synapses and spine growth; assay: Photoactivation of paCaMKII T286A in hippocampal neurons (structural LTP); type: cell-based; details: AS283 10 μM; AS397
From the text: as §3, with “structural LTP. […]” for “structural LTP.”
as §4
as §2, with “As a measure of synaptic enrichment, the ratio of mean CaMKII fluorescence intensity of the PSD-95 mask to the mean CaMKII fluorescence intensity in the dendritic shaft mask is measured.” left out

[5] = tested on: LTP in CaMKII T286A slices; assay: LTP induction in hippocampal slices from CaMKII T286A mutant mice; type: cell-based, mouse; details: 10 μM inhibitor
[6] = biological target: T1, CaMKII/GluN2B co-localization in HEK293 cells (Homo sapiens, UniProt Q9UQM7); assay: Ionomycin-induced co-localization of GFP-CaMKII and mCherry-2BC in HEK293 cells; type: cell-based; details: 10 μM inhibitor
T1 construct: expressed in transfected cells; host or cells: HEK293 cells
T1 sequence (Q9UQM7 whole entry): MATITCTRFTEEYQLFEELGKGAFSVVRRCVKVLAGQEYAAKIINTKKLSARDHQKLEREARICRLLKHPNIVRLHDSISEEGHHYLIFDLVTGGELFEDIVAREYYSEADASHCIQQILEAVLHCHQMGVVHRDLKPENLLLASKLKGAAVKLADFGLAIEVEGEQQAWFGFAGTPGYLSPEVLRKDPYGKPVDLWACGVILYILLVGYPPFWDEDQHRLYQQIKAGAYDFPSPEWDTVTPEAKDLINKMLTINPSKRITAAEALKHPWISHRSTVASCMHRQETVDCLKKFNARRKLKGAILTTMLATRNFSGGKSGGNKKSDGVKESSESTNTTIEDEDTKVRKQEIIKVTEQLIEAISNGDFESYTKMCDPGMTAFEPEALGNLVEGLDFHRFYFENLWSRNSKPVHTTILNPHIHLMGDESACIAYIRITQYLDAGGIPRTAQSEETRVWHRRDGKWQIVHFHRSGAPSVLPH
T1 sequence (Q13224 836-1484 S1303A partner limits assumed): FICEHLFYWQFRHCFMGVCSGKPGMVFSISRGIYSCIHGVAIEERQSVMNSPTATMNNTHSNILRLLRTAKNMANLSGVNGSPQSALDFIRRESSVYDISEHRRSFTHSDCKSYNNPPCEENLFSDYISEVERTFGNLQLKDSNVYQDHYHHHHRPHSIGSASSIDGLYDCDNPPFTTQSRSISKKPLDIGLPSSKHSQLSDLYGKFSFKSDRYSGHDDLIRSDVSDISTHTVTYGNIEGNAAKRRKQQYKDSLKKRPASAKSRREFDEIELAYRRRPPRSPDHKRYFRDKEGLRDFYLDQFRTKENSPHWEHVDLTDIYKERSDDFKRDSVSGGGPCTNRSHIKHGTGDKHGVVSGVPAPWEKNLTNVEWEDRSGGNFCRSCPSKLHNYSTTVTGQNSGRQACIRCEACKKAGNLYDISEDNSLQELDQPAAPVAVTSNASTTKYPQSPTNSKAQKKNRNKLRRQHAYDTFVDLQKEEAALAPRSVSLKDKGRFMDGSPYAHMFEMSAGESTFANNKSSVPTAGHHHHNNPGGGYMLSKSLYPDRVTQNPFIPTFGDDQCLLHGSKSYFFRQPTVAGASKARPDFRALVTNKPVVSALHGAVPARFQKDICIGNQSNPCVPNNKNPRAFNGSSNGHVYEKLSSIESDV
Method: In a series of exemplary methods, an in vitro kinase assay was used where purified CaMKIIα is incubated at 30° C. with GST-GluA1 alongside ATP. CaMKIIα normally phosphorylates S831 on the GluA1 subunit and this phosphorylation can be measured as a readout of CaMKIIα enzymatic activity (see e.g., FIG. 8B). […] In another exemplary method, binding of purified CaMKIIα to immobilized GST-GluN2B-c was induced by Ca^2+/CaM in the presence of a vehicle (none), 4 mM ADP or with […] AS105. […] At the same time, two exemplary methods were performed to observe ionomycin or chemical LTP (cLTP) induced co-localization of CaMKII and GluN2B either in HEK293 cells co-expressing GFP-CaMKII and mCherry-2BC or dissociated rat hippocampal cultures expressing GFP-CaMKII and mCh-PSD95 intrabody. HEK293 cells, incubating with vehicle or 10 μM AS105, were subjected to ionomycin. Hippocampal cultures, also incubating with either vehicle or 10 μM AS105, were treated with a chemical LTP (cLTP) stimulus (e.g., 100 μM glutamate, 10 μM glycine for 45 seconds). Confocal microscopy images were taken before and after each stimulus.

Sequence of CaMKII F89G binding to GluN2B (Q9UQM7 whole entry F89G): as the sequence (Q9UQM7 whole entry) above, with F89G counted along it
Sequence of CaMKII F89G binding to GluN2B (Q13224 836-1484 partner limits assumed): as the sequence (Q13224 836-1484 S1303A partner limits assumed) above, with A468S counted along it

SMILES	binding of CaMKII F89G to GluN2B in vitro [1]	impaired synaptic localization of CaMKII F89G mutant [2]	CaMKII movement after photoactivation of paCaMKII F89G [3]	CaMKII movement to synapses after photoactivation of paCaMKII T286A [4]	spine growth (structural LTP) after photoactivation of paCaMKII T286A [4]	LTP induction in slices from T286A mutant mice [5]	ionomycin-induced CaMKII/GluN2B co-localization in HEK293 cells [6]
CC(C)(C)n1nc(Cc2cccc3ccccc23)c2c(N)ncnc21 [NM-PP1]	enabled binding of CaMKII F89G to GluN2B also in vitro	rescued	enabled similar movement				
NCCNc1cccc(-c2ccnc3[nH]c4ccccc4c23)c1 [AS283]				robust CaMKII movement	spine growth	enabled LTP	failed to inhibit CaMKII binding to GluN2B
